In PubChem BioAssay AID1996:
In brackets after ≈: the same amount, converted by molar mass.

Details: buffer; pH 7.4; 200.0 µM

| SMILES | solubility kinetic [µg/mL] |
| --- | --- |
| CC1CC(C)CN(S(=O)(=O)c2ccc3c(c2)CC(=O)N3)C1 (stereo not given) | 9.4 (≈ 30.5 µM) |
| C/C(=N/NC(=O)C(C)n1nc(C)c([N+](=O)[O-])c1C)c1ccc(OCC(N)=O)cc1 (stereo not given) | > 60.4 |
| CN(c1ccccc1)S(=O)(=O)c1ccc2[nH]c(=O)oc2c1 | > 45.6 |
| CC(=O)Nc1ccc(NC(=O)CSc2nc3ccccc3c(=O)n2CCCN2CCOCC2)cc1 | 70.9 (≈ 143 µM) |
| CNc1ccc([N+](=O)[O-])cc1C(=O)O | 26.7 (≈ 136 µM) |
| Cc1nc(NCCc2ccccc2)sc1C(=O)O | 38.7 (≈ 148 µM) |
| N#CC(C(=S)Nc1ccccc1)c1nc2ccccc2[nH]1 (stereo not given) | 0.9 (≈ 3.08 µM) |
| O=C(NCCc1c[nH]c2ccccc12)c1ccc(F)cc1F | > 45 |
| O=C(c1nc(SCc2ccc([N+](=O)[O-])cc2)n2ccccc12)C(F)(F)F | < 0.3 |
| CSc1nc(-c2ccc(Cl)cc2)nc(N)c1C#N | < 0.1 |
| COc1ccc(NS(=O)(=O)c2ccc(Cl)c(NC(=O)c3ccccc3F)c2)cc1 | 2.6 (≈ 5.98 µM) |
| Cl.NCC12CC3CC(C1)CC(c1ccc(Cl)cc1)(C3)C2 | > 46.8 |
| O=C(CNC(=O)c1ccco1)OCc1ccccc1Cl | > 44.1 |
| O=C(Nc1nccs1)c1cccc2ccccc12 | 1.9 (≈ 7.47 µM) |
| CCOC(=O)c1ccc(NC(=S)N2CCCC2)cc1 | 39.6 (≈ 142 µM) |
| OCCC1CN(Cc2cccc(O)c2)CCN1CCc1ccccc1 (stereo not given) | 50.8 (≈ 149 µM) |
| O=C(Cn1c(=O)oc2ccccc21)N1CCCC1 | > 36.9 |
| O=C(NC1CCCC1)C(=O)c1c[nH]c2ccccc12 | 12.1 (≈ 47.2 µM) |
| CN(C(=O)c1ccc(Br)o1)C1CCCCC1 | 32.2 (≈ 113 µM) |
| COC(=O)c1nc[nH]c1C(=O)OC | > 27.6 |

| SMILES | solubility kinetic [µg/mL] |
| --- | --- |
| CC1CC1C(=O)OCC(=O)Nc1cccc(F)c1 (stereo not given) | > 37.7 |
| O=c1c2sc3ccccc3c2[nH]c(=S)n1CCN1CCOCC1 | 49.9 (≈ 144 µM) |
| Cc1ccc(C(O)c2ccc(-n3ccnc3)cc2)cc1 (stereo not given) | 39.5 (≈ 149 µM) |
| O=S(=O)(Nc1ccc(S(=O)(=O)N2CCCC2)cc1)c1ccc(F)cc1F | > 60.4 |
| Cc1nc(SCC(=O)N2CCOCC2)c2c3c(sc2n1)CCC3 | 32.8 (≈ 93.9 µM) |
| COc1ccc(CNC(=S)Nc2cccc(F)c2)cc1 | 14.6 (≈ 50.3 µM) |
| CCN(C(=O)COC(=O)CCNS(=O)(=O)c1ccccc1F)c1c(N)n(Cc2ccccc2)c(=O)[nH]c1=O | > 82.1 |
| O=C1c2ccccc2C(=O)N1c1cc([N+](=O)[O-])ccn1 | 29.2 (≈ 108 µM) |
| Cc1cc(Nc2ccc(N(C)C)cc2)n2ncnc2n1 | > 40.2 |
| CC1CCCC(N2CCN(C(=O)c3ccccc3F)CC2)C1 (stereo not given) | > 45.7 |
| COc1ccccc1CC(=O)NCc1csc(-c2cccs2)n1 | 46 (≈ 134 µM) |
| CC1CCCCN1Cc1ccc(Cl)nc1 (stereo not given) | 15.5 (≈ 69 µM) |
| Cc1ccc(NC(=O)C2CCCN2C(=O)OCc2ccccc2)c(C)c1 (stereo not given) | 18.5 (≈ 52.5 µM) |
| COc1ccccc1CC(=O)Nc1cccc(C(=O)Nc2nccs2)c1 | 0.7 (≈ 1.91 µM) |
| Nc1ccccc1-c1nnc(SCC(=O)Nc2ccccc2OC(F)F)[nH]c1=O | > 62.9 |
| CN(c1ccccc1)c1nc(N)c([N+](=O)[O-])c(NCCO)n1 | 42.9 (≈ 141 µM) |
| CC1CC(C)CN(C(=O)c2cc3ccccc3o2)C1 (stereo not given) | 28.7 (≈ 112 µM) |
| CCC1(Cc2ccccc2)NC(=O)c2ccccc2O1 (stereo not given) | 36.5 (≈ 137 µM) |
| COc1ccc(NC(=O)CCCn2cnc3ccccc3c2=O)cc1 | > 50.6 |
| CC(=O)Nc1ccc(SCC(=O)Nc2ccc(Cl)cn2)cc1 | 9.6 (≈ 28.6 µM) |

| SMILES | solubility kinetic [µg/mL] |
| --- | --- |
| O=C(OCC(=O)N1CCc2ccccc21)[C@@H]1CC(O)CN1S(=O)(=O)c1ccccc1[N+](=O)[O-] (stereo not given in full) | 20.4 (≈ 42.9 µM) |
| CC1CC(C)(C)N2C(=O)C(=C(C#N)C#N)c3cccc1c32 (stereo not given) | 1.2 (≈ 4.33 µM) |
| CCOc1ccccc1CNC(c1ccccc1)c1ccccc1.Cl | 1.4 |
| CC(=O)N1CCN=C1SCc1cccc(F)c1 | 36.5 (≈ 145 µM) |
| O=C(O)C(Cc1ccc(O)cc1)N1C(=O)C2CCCCC2C1=O (stereo not given) | > 47.6 |
| Cc1ccc(NC(=S)NC(=O)C2CCCC2)cc1C | 0.5 (≈ 1.81 µM) |
| Cc1cc(C(=O)NN=C2CCCC2)c2ccccc2n1 | > 40.1 |
| COCCCn1c(=O)cc(C)[nH]c1=S | > 32.1 |
| Clc1cccc(CN2CCSCC2)c1Cl | 1 (≈ 3.81 µM) |
| O=C(Nc1ccc2ccccc2n1)c1ccccc1 | 29.8 (≈ 120 µM) |
| COc1ccc(C(=O)NC2CCCc3ccccc32)cc1 (stereo not given) | 6.5 (≈ 23.1 µM) |
| O=S(=O)(c1ccc(Cl)cc1)N1CCN(Cc2cccnc2)CC1 | 49.4 (≈ 140 µM) |
| CS(=O)(=O)N1CCCC(C(=O)Nc2cccc(F)c2)C1 (stereo not given) | > 45.1 |
| CCOC(=O)c1sc(=NC(=O)COc2ccccc2)n(C)c1C | 1.4 (≈ 4.19 µM) |
| COc1cccc2cc(C(N)=O)oc12 | > 28.7 |
| Cc1ccc(NC(=O)c2cc3cccc([N+](=O)[O-])c3[nH]2)cc1 | 2.8 (≈ 9.48 µM) |
| Cc1ccc(CC2C(=O)N(c3nc(C)cc(C)n3)C(=O)C2C)cc1 (stereo not given) | > 48.5 |
| COc1cccc(NC(=O)C2CC(=O)N(Cc3ccc(C)cc3)C2)c1 (stereo not given) | 9.3 (≈ 27.5 µM) |
| CN1CC(C(=O)c2ccc(Cl)cc2)C(c2ccccc2)C1 (stereo not given) | 40.1 (≈ 134 µM) |
| Cc1cccc(C)c1OCc1cc(C(=O)NCC2CC2)no1 | 4.6 (≈ 15.3 µM) |
